Reference: patent publication US20130123494A1, “COMPLEX COMPOUND AND OPTICAL RECORDING MEDIUM CONTAINING SAME” (KH NEOCHEM CO., LTD., priority 2010, published 2013)

Experiments:
Type in all cases: physicochemical
[1] = Moisture- and heat-resistances test of thin films; details: thin film, 80° C., relative humidity 80%, 100 hours
Protocol: Similarly to the film-forming test, thin films of Complex Compounds (2) to (5), (7), (9) to (11), (13) to (21), (24), (26), (28), (30), (31), and (33) were respectively obtained. Using a constant temperature and humidity chamber, KHWII-40HP, manufactured by Satake Chemical Equipment Mfg Ltd., the thin films were exposed in the atmosphere having a temperature of 80° C. and a relative humidity of 80% for 100 hours. Ultraviolet-visible absorption spectra of the thin films before and after the moisture- and heat-resistances test were measured using a spectrophotometer. […] Here, the absorption maximum wavelength after the moisture- and heat-resistances test denotes the absorption maximum wavelength in an absorption spectrum after the moisture- and heat-resistances test.

[2] = Water resistance test of thin films; details: for I^d/I^d0 (absorbance ratio at absorption maximum after/before water resistance test) / Δλmax (d) (change in absorption maximum wavelength): thin film immersed in water at 75° C. for 30 minutes; for Water resistance of thin film (in words): thin film in water at 75° C. for 30 minutes
Protocol: Similarly to the film-forming test, thin films of Complex Compounds (2), (3), (13), (19), and (20) were respectively obtained. Ultraviolet-visible absorption spectra of the thin films were measured using a spectrophotometer before and after the water resistance test in which the thin films were immersed in water at 75° C. for 30 minutes. […] Here, the absorption maximum wavelength after the water resistance test denotes the absorption maximum wavelength in the absorption spectrum after the water resistance test. […] Here, the water resistance test is a test under severe conditions, and a thin film having the ratio (I^d/I^d0) of 0.5 or greater has favorable water resistance.

[3] = Lightfastness test of thin films; details: thin film on glass plate, UV fluorescent lamps 15 W/m^2, 45° C., 10 hours
Text: Thin films of Complex Compounds (2) to (5), (7), (9) to (11), (13) to (21), (24), (26), (28), (30), (31), and (33) were respectively obtained similarly to the film-forming test except that a glass plate (manufactured by Taiyu Kizai Co., Ltd.; 2 cm×2 cm; thickness: 2 mm) was used as the substrates instead of the plate made of polycarbonate resin. Using a dewpanel light control weather meter DPWL-5R, manufactured by Suga Test Instruments Co., Ltd., which was equipped with ultraviolet fluorescent lamps (SUGA-FS40, manufactured by Suga Test Instruments Co., Ltd., having a peak wavelength of 313 nm and an illuminance distribution of 282 nm to 373 nm), light was irradiated on the thin films with an amount of light of 15 W/m^2 at 45° C. for 10 hours. Ultraviolet-visible absorption spectra of the thin film before and after the lightfastness test were measured using a spectrophotometer.
Here, the absorption maximum wavelength after lightfastness test denotes an absorption maximum wavelength in the absorption spectrum after the lightfastness test.

[4] = Test of storage stability in solution; details: 13 mg in 1 mL TFP, brown bottle, 25° C., 3 days; 1250-fold diluted for measurement
Protocol: Each of 13 mg of Complex Compounds (2) to (5), (7), (9) to (11), (13) to (21), (24), (26), (28), (30), (31), and (33) was dissolved in 1 mL of TFP, which was filtered with a filter made of TEFLON (registered trademark) (manufactured by Whatman, having a pore diameter of 0.20 μm), and solutions of Complex Compounds (2) to (5), (7), (9) to (11), (13) to (21), (24), (26), (28), (30), (31), and (33) were respectively obtained. Each of the obtained solutions was transferred to a brown bottle with a lid and stored at 25° C. for 3 days. Before and after the storage stability test, using a spectrophotometer, 1250-fold diluted solutions of Complex Compounds (2) to (5), (7), (9) to (11), (13) to (21), (24), (26), (28), (30), (31), and (33), respectively, were measured for their ultraviolet-visible absorption spectra. […] Here, the absorption maximum wavelength after the storage stability test is the absorption maximum wavelength in the absorption spectrum after the storage stability test.

SMILES	I^b/I^b0 (absorbance ratio at absorption maximum after/before moisture- and heat-resistances test) [1]	Δλmax(b) (change in absorption maximum wavelength) [1] [nm]	I^a/I^a0 (absorbance ratio at absorption maximum after/before lightfastness test) [3]	I^c/I^c0 (absorbance ratio at absorption maximum after/before storage stability test) [4]	Δλmax(c) (change in absorption maximum wavelength) [4] [nm]	I^d/I^d0 (absorbance ratio at absorption maximum after/before water resistance test) [2]	Δλmax (d) (change in absorption maximum wavelength) [2] [nm]	Water resistance of thin film (in words) [2]
CCCCn1c([O-])c(/C=N/[N-]c2nnnn2-c2ccccc2)c(C)c(C#N)c1=O.CCCCn1c([O-])c(/C=N/[N-]c2nnnn2-c2ccccc2)c(C)c(C#N)c1=O.CCCCn1c([O-])c(/C=N/[N-]c2nnnn2-c2ccccc2)c(C)c(C#N)c1=O.CCCCn1c([O-])c(/C=N/[N-]c2nnnn2-c2ccccc2)c(C)c(C#N)c1=O.Fc1cccc(-[n+]2ccc(-c3cc[n+](-c4cccc(F)c4)cc3)cc2)c1.[Co+3].[Co+3] [Complex Compound (2)]	0.97	0.5	0.92	1.00	0	0.73	0.5	superior water resistance
Cc1c(/C=N/[N-]c2nnnn2-c2ccccc2)c([O-])n(CC(C)C)c(=O)c1C#N.Cc1c(/C=N/[N-]c2nnnn2-c2ccccc2)c([O-])n(CC(C)C)c(=O)c1C#N.Cc1c(/C=N/[N-]c2nnnn2-c2ccccc2)c([O-])n(CC(C)C)c(=O)c1C#N.Cc1c(/C=N/[N-]c2nnnn2-c2ccccc2)c([O-])n(CC(C)C)c(=O)c1C#N.[Co+3].[Co+3].c1ccc(-[n+]2ccc(-c3cc[n+](-c4ccccc4)cc3)cc2)cc1 [Complex Compound (13)]	0.99	0	0.87	0.99	0	0.59	0.5	superior water resistance
Cc1c(/C=N/[N-]c2nnnn2-c2ccccc2)c([O-])n(CC(C)C)c(=O)c1C#N.Cc1c(/C=N/[N-]c2nnnn2-c2ccccc2)c([O-])n(CC(C)C)c(=O)c1C#N.Cc1c(/C=N/[N-]c2nnnn2-c2ccccc2)c([O-])n(CC(C)C)c(=O)c1C#N.Cc1c(/C=N/[N-]c2nnnn2-c2ccccc2)c([O-])n(CC(C)C)c(=O)c1C#N.FC(F)(F)c1cccc(-[n+]2ccc(-c3cc[n+](-c4cccc(C(F)(F)F)c4)cc3)cc2)c1.[Co+3].[Co+3] [Complex Compound (19)]	0.99	0	0.85	0.99	0	0.76	0	superior water resistance
Cc1c(/C=N/[N-]c2nc3ccccc3o2)c([O-])n(Cc2ccco2)c(=O)c1C#N.Cc1c(/C=N/[N-]c2nc3ccccc3o2)c([O-])n(Cc2ccco2)c(=O)c1C#N.Cc1c(/C=N/[N-]c2nc3ccccc3o2)c([O-])n(Cc2ccco2)c(=O)c1C#N.Cc1c(/C=N/[N-]c2nc3ccccc3o2)c([O-])n(Cc2ccco2)c(=O)c1C#N.Fc1cccc(-[n+]2ccc(-c3cc[n+](-c4cccc(F)c4)cc3)cc2)c1.[Co+3].[Co+3] [Complex Compound (24)]	1.00	0.5	0.92	1.02	0.5	–	–	–

Second part, led by results:

I^b/I^b0 (absorbance ratio at absorption maximum after/before moisture- and heat-resistances test) [1]	Δλmax(b) (change in absorption maximum wavelength) [1] [nm]	I^a/I^a0 (absorbance ratio at absorption maximum after/before lightfastness test) [3]	I^c/I^c0 (absorbance ratio at absorption maximum after/before storage stability test) [4]	Δλmax(c) (change in absorption maximum wavelength) [4] [nm]	SMILES	I^d/I^d0 (absorbance ratio at absorption maximum after/before water resistance test) [2]	Δλmax (d) (change in absorption maximum wavelength) [2] [nm]	Water resistance of thin film (in words) [2]
1.00	0	0.88	1.01	0	Cc1ccc(-n2c([O-])c(/C=N/[N-]c3nnnn3-c3ccccc3)c(C)c(C#N)c2=O)cc1.Cc1ccc(-n2c([O-])c(/C=N/[N-]c3nnnn3-c3ccccc3)c(C)c(C#N)c2=O)cc1.Cc1ccc(-n2c([O-])c(/C=N/[N-]c3nnnn3-c3ccccc3)c(C)c(C#N)c2=O)cc1.Cc1ccc(-n2c([O-])c(/C=N/[N-]c3nnnn3-c3ccccc3)c(C)c(C#N)c2=O)cc1.[Co+3].[Co+3].c1cc[n+]2c(c1)-c1cccc[n+]1CCC2 [Complex Compound (26)]	–	–	–
0.99	0	0.88	0.99	0	CCCCn1c([O-])c(/C=N/[N-]c2nnnn2-c2ccccc2)c(CCC)c(C#N)c1=O.CCCCn1c([O-])c(/C=N/[N-]c2nnnn2-c2ccccc2)c(CCC)c(C#N)c1=O.CCCCn1c([O-])c(/C=N/[N-]c2nnnn2-c2ccccc2)c(CCC)c(C#N)c1=O.CCCCn1c([O-])c(/C=N/[N-]c2nnnn2-c2ccccc2)c(CCC)c(C#N)c1=O.[Co+3].[Co+3].c1cc2ccc3ccc[n+]4c3c2[n+](c1)CCC4 [Complex Compound (28)]	–	–	–
0.99	0	0.89	0.99	0	Cc1c(/C=N/[N-]c2nnnn2-c2ccccc2)c([O-])n(Cc2ccccc2)c(=O)c1C#N.Cc1c(/C=N/[N-]c2nnnn2-c2ccccc2)c([O-])n(Cc2ccccc2)c(=O)c1C#N.Cc1c(/C=N/[N-]c2nnnn2-c2ccccc2)c([O-])n(Cc2ccccc2)c(=O)c1C#N.Cc1c(/C=N/[N-]c2nnnn2-c2ccccc2)c([O-])n(Cc2ccccc2)c(=O)c1C#N.[Co+3].[Co+3].c1cc[n+]2c(c1)-c1cccc[n+]1CCC2 [Complex Compound (30)]	–	–	–
1.00	0	0.85	1.02	0	Cc1c(/C=N/[N-]c2nnnn2-c2ccccc2)c([O-])n(Cc2ccccc2)c(=O)c1C#N.Cc1c(/C=N/[N-]c2nnnn2-c2ccccc2)c([O-])n(Cc2ccccc2)c(=O)c1C#N.Cc1c(/C=N/[N-]c2nnnn2-c2ccccc2)c([O-])n(Cc2ccccc2)c(=O)c1C#N.Cc1c(/C=N/[N-]c2nnnn2-c2ccccc2)c([O-])n(Cc2ccccc2)c(=O)c1C#N.[Co+3].[Co+3].c1ccc(CC[N+]23CC[N+](CCc4ccccc4)(CC2)CC3)cc1 [Complex Compound (31)]	–	–	–
1.00	0	0.91	1.01	0	Cc1c(/C=N/[N-]c2nc3ccccc3o2)c([O-])n(Cc2ccccc2)c(=O)c1C#N.Cc1c(/C=N/[N-]c2nc3ccccc3o2)c([O-])n(Cc2ccccc2)c(=O)c1C#N.Cc1c(/C=N/[N-]c2nc3ccccc3o2)c([O-])n(Cc2ccccc2)c(=O)c1C#N.Cc1c(/C=N/[N-]c2nc3ccccc3o2)c([O-])n(Cc2ccccc2)c(=O)c1C#N.[Co+3].[Co+3].c1cc[n+]2c(c1)-c1cccc[n+]1CCC2 [Complex Compound (33)]	–	–	–
